This passage reports target mRNA inhibition results from the OligoGym collection.

Values joined by “and” are separate entries in the source; they are usually repeats but may differ in a detail not shown here. Equal values may be shown once. After the bases stand the sugars from the 5' end (letter, count) and the backbone: PS all phosphorothioate, else s phosphorothioate and o phosphodiester by linkage. Methylation of C is not given here. e = 2'-O-(2-methoxyethyl) (MOE); d = 2'-deoxy (DNA)

This data set deals with DGAT2. To be noted: ASO.

Regarding “GTGGCTCTCTAGATAGGGTG (sugars e5 d10 e5, PS)”, the target mRNA inhibition is, setting by setting: (HepG2, 2.5 µM) 68%; (HepG2, 10 µM) 84%.

For “GTGGTTGCAATGTTGCCATC (sugars e5 d10 e5, PS)”, the target mRNA inhibition is, setting by setting: (HepG2, 2.5 µM) 83% and 81% and 76%; (HepG2, 10 µM) 92% and 84% and 91%.

For the setting “HepG2, 0.12 µM”, “GTGTAGCCAGGTAAGGCCGT (sugars e5 d10 e5, PS)” came in with a target mRNA inhibition of 50%.

Consider “GTTAGGATGCTTAACTTCTG (sugars e5 d10 e5, PS)”, for which the target mRNA inhibition reads like this: (HepG2, 2.5 µM) 51%; (HepG2, 10 µM) 86%.

As for “GTTCTTGGGCCTAAAGGTGA (sugars e5 d10 e5, PS)”, under “HepG2, 0.12 µM”, the target mRNA inhibition was 34%.

“GTTGTGTGTCTTCACCAGCT (sugars e2 d13 e5, PS)”: under “HepG2, 0.12 µM”, the target mRNA inhibition stood at 65%.

With “GTTGTGTGTCTTCACCAGCT (sugars e5 d10 e5, PS)”, for the setting “HepG2, 0.12 µM”, the target mRNA inhibition was 54% and 68%.

As for “GTTTACTGTGGCACTAAGCT (sugars e5 d10 e5, PS)”, the target mRNA inhibition amounted to 57% (HepG2, 2.5 µM) and 84% (HepG2, 10 µM).

For “GTTTCCTTTGAAATCCAATG (sugars e5 d10 e5, PS)”, the target mRNA inhibition (HepG2, 2.5 µM) was 69% and 68%; the target mRNA inhibition (HepG2, 10 µM) is 90% and 81%.

As to “GTTTCGGACCCACTGTGACC (sugars e5 d10 e5, PS)”, the target mRNA inhibition (HepG2, 0.12 µM) came to 65%.

In turn, “GTTTTGGGAACTCATGCATT (sugars e5 d10 e5, PS)” had a target mRNA inhibition (HepG2, 0.12 µM) of 50%.

In turn, “TAAATAACCCACAGACACCC (sugars e5 d10 e5, PS)” yielded a target mRNA inhibition (HepG2, 0.12 µM) of 6%.

Regarding “TAAGCCTCGGTGTCCTCTCC (sugars e5 d10 e5, PS)”, the target mRNA inhibition came out at 90% (HepG2, 2.5 µM) and 73% (HepG2, 10 µM).

As for “TACTGACTTTTTCCTTCTTA (sugars e5 d10 e5, PS)”, the target mRNA inhibition (HepG2, 0.12 µM) was 39%.

Turning to “TAGCCAGGTAAGGCCGTATG (sugars e3 d14 e3, PS)”, under “HepG2, 0.12 µM”, the target mRNA inhibition is 49%.

With “TAGTTCCTGGTGGTCAGCAG (sugars e5 d10 e5, PS)”, the target mRNA inhibition (HepG2, 0.12 µM) was 48%.

Consider “TATAGTTCCTGGTGGTCAGC (sugars e5 d10 e5, PS)”, for which the target mRNA inhibition (HepG2, 0.12 µM) was 56%.

For “TATCCAAAGATATAGTTCCT (sugars e5 d10 e5, PS)”, the target mRNA inhibition (HepG2, 0.12 µM) was found to be 13%.

Take “TATTTCTGGAACTTCTTCTG (sugars e5 d10 e5, PS)”: the target mRNA inhibition (HepG2, 0.12 µM) worked out at 22%.

As for “TCACAGAATTATCAGCAGTA (sugars e5 d10 e5, PS)”, the target mRNA inhibition is 80% and 61% (HepG2, 2.5 µM); 93% and 84% (HepG2, 10 µM).

In the case of “TCACCAGATTGTTGTGGGAA (sugars e5 d10 e5, PS)”, the target mRNA inhibition reads like this: (HepG2, 2.5 µM) 69%; (HepG2, 10 µM) 78%.

In the case of “TCACTTGCTTGAGGTCAGGG (sugars e5 d10 e5, PS)”, the target mRNA inhibition by setting is: (HepG2, 2.5 µM) 71% and 79%; (HepG2, 10 µM) 80% and 89%.

Sequence “TCAGAAGGCCAGGCCCCTTC (sugars e5 d10 e5, PS)” gave a target mRNA inhibition (HepG2, 0.12 µM) of 20%.

For the setting “HepG2, 0.12 µM”, “TCAGCCACCCAAGAAAAACC (sugars e5 d10 e5, PS)” came in with a target mRNA inhibition of 0%.

For the sequence “TCATGAGAAGCTTAGAAGGC (sugars e5 d10 e5, PS)”, the target mRNA inhibition (HepG2, 0.12 µM) amounted to 58%.

In turn, “TCCAAAGATATAGTTCCTGG (sugars e5 d10 e5, PS)” had a target mRNA inhibition (HepG2, 0.12 µM) of 63%.

With “TCCAGACTGGATTTACTGAA (sugars e5 d10 e5, PS)”, the target mRNA inhibition (HepG2, 0.12 µM) is 60%.

On to “TCCCAGACCCCTCGCGCGAC (sugars e5 d10 e5, PS)”, for which the target mRNA inhibition (HepG2, 0.12 µM) was found to be 36%.

As to “TCCCCAATATCATACTATCT (sugars e5 d10 e5, PS)”, the target mRNA inhibition reads like this: (HepG2, 2.5 µM) 50%; (HepG2, 10 µM) 88%.

Consider “TCCTATCAGTTAGCAGTGCA (sugars e5 d10 e5, PS)”, for which the target mRNA inhibition is 81% and 68% (HepG2, 2.5 µM); 86% and 83% (HepG2, 10 µM).

In turn, “TCCTGGTGGTCAGCAGGTTG (sugars e5 d10 e5, PS)” had a target mRNA inhibition (HepG2, 0.12 µM) of 58%.

“TCGGAGGAGAAGAGGCCTCG (sugars e5 d10 e5, PS)” had a target mRNA inhibition (HepG2, 0.12 µM) of 60%.

For the sequence “TCTCATCAAGAGATAACAGA (sugars e5 d10 e5, PS)”, for the setting “HepG2, 0.12 µM”, the target mRNA inhibition worked out at 6%.

Under “HepG2, 0.12 µM”, “TCTGGACCCATCGGCCCCAG (sugars e5 d10 e5, PS)” showed a target mRNA inhibition of 20%.

Take “TCTTTGAAAGCAAATAGTCT (sugars e5 d10 e5, PS)”: the target mRNA inhibition (HepG2, 0.12 µM) worked out at 40%.

“TGACCTGTAGCTGCTTTTCC (sugars e5 d10 e5, PS)” showed a target mRNA inhibition (HepG2, 0.12 µM) of 35%.

Turning to “TGAGTAAGGGTATTCTGCTC (sugars e5 d10 e5, PS)”, the target mRNA inhibition was 80% and 72% (HepG2, 2.5 µM); 93% and 91% (HepG2, 10 µM).

In the case of “TGAGTAGTCAAAGGTGGCTT (sugars e5 d10 e5, PS)”, the target mRNA inhibition (HepG2, 0.12 µM) is 30%.

With “TGATAGCATTGCCACTCCCA (sugars e5 d10 e5, PS)”, the target mRNA inhibition (HepG2, 0.12 µM) turned out to be 64%.

In the case of “TGATCTCATCAAGAGATAAC (sugars e5 d10 e5, PS)”, under “HepG2, 0.12 µM”, the target mRNA inhibition was 17%.

In turn, “TGATTCTTACCTGCAATGAG (sugars e5 d10 e5, PS)” had a target mRNA inhibition (HepG2, 0.12 µM) of 22%.

“TGCACCTTGTATTAAATACT (sugars e5 d10 e5, PS)”: the target mRNA inhibition by setting is: (HepG2, 2.5 µM) 76% and 65%; (HepG2, 10 µM) 93% and 87%.

Regarding “TGCCAATGCCTAGGTCACAG (sugars e5 d10 e5, PS)”, the target mRNA inhibition runs as follows: (HepG2, 2.5 µM) 78% and 87%; (HepG2, 10 µM) 87% and 91%.
